Source: patent US20230295131A1, “INHIBITORS OF RHO-ASSOCIATED COILED-COIL KINASE” (Angion Biomedica Corp., priority 2020, published 2023)

Experiments:
ROCK1 = molecular target: T1, ROCK1 (Homo sapiens, UniProt Q13464); assay: ROCK1 kinase binding affinity, DiscoverX KINOMEscan KdELECT; settings: 11-point 3-fold dilution
T1 construct: T7 phage fusion (kinase-tagged phage) or DNA tag for qPCR detection
Method in brief: (§1)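 Competition binding of DNA- or phage-tagged kinase to immobilised ligand beads, with bound kinase quantified by qPCR of eluates.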

[1] = tested on: miRNAs in hepatic homogenates; assay: miRNA quantification in liver homogenates of the NASH model; assay type: in vivo, mice
Procedure: (§2) 2. Pharmacodynamic and Efficacy Profile in Hepatic Diseases: • The activity of Ex. 65 was evaluated in a model of fast-food diet (FFD)+CCl4+sugar-induced NASH. Adult male mice were randomized to vehicle of 30 mg/kg test compound, IP, twice-daily for two weeks. Treatment with Ex. 65 reduced hepatic lipid accumulation (FIG. 3) and NAFLD activity score (NAS; FIG. 4).
MicroRNAs (miRNAs) from liver homogenates from the study described above were quantified. Compared to healthy livers, 65 differentially expressed miRNAs from NASH livers were identified, of which 22 were corrected by treatment with Ex. 65 (see Table 6).

Hepatic stellate cells = assay: Gel contraction assay (TGFβ1-induced); assay type: cell-based; settings: test compound at 100 μM, 1 hour pretreatment, TGFβ1 24 hours
Procedure: Hepatic stellate cells were plated onto collagen coated plates and pretreated with test compound (at 100 μM) for 1 hour. TGFβ1 is then added for 24 hours, and images are taken.

ROCK2 = molecular target: T2, ROCK2 (Homo sapiens, UniProt O75116); assay: ROCK2 kinase binding affinity, DiscoverX KINOMEscan KdELECT
T2 construct: T7 phage fusion (kinase-tagged phage) or DNA tag for qPCR detection
T2 sequence (O75116 whole entry, the tested form may be a part): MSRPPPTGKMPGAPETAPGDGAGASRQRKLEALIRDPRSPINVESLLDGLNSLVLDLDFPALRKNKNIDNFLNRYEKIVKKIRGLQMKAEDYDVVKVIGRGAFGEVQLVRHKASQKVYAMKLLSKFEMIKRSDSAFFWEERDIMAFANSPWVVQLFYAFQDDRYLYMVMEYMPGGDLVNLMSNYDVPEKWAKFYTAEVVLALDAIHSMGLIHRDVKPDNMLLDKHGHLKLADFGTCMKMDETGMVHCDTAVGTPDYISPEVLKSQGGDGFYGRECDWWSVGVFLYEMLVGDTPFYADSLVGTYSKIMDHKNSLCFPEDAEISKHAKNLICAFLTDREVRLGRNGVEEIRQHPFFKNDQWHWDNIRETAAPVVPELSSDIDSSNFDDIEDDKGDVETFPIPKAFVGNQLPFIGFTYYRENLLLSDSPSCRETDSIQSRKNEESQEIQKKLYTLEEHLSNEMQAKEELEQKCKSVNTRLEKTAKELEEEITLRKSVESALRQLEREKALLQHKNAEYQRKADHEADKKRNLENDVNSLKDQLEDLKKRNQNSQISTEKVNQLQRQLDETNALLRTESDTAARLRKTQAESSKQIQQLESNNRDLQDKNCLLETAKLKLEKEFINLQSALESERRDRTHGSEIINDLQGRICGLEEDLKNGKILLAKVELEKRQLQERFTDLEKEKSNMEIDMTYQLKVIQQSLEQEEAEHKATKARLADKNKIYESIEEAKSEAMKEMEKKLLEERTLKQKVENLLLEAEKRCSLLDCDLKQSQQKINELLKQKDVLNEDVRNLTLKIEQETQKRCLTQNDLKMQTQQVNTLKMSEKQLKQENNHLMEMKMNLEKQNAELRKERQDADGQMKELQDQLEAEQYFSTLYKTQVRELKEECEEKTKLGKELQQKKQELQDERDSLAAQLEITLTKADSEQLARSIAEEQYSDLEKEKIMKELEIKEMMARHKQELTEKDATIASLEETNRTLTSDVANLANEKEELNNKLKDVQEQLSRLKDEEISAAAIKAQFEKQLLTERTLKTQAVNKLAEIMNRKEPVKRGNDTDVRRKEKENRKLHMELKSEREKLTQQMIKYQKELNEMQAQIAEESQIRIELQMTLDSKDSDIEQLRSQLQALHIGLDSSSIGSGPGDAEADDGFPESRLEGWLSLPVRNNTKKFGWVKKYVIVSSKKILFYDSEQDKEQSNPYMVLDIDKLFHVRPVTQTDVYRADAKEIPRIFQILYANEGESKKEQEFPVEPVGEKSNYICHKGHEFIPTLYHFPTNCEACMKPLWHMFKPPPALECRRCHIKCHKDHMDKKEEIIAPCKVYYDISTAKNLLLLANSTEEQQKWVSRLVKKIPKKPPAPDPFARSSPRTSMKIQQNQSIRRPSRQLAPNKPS
Method in brief: as §1

[2] = Pharmacokinetic profile, compound levels in the vena cava; assay type: in vivo, C57BL/6 Mouse; settings: po 10 mg/kg in 0.5% CMC suspension
Procedure: (§3) For assessing compound levels in the vena cava, 10-11 week old male C57BL/6 animals were dosed orally with 10 mg/kg of Ex. 65 (mesylate salt) in 0.5% carboxymethyl cellulose (CMC) in water. Serum samples were collected from the portal vein at 15, 30, 60 120, 240, 360 and 480 minutes after dosing. Samples were analyzed for compound concentration by LC-MS.

[3] = Pharmacokinetic profile, compound levels in the portal vein; assay type: in vivo, C57BL/6 Mouse
Procedure: as §3, with “portal vein, 7-8” for “vena cava, 10-11”, “mg/kg compound” for “mg/kg”, “120” for “120, 240, 360”, “240” for “480”, “compound” for “compound concentration”

[4] = tested on: fast-food diet (FFD)+CCl4+sugar-induced NASH; assay: Fast-food diet (FFD)+CCl4+sugar-induced NASH model; assay type: in vivo, mice; settings: 30 mg/kg, IP, twice-daily for two weeks; for hepatic lipid accumulation (liver steatosis): FIG. 3; for NAFLD activity score (NAS): FIG. 4
Procedure: as §2

[5] = tested on: CTGF in mouse embryonic fibroblasts (MEFs); assay: TGFβ1-induced CTGF production assay; assay type: cell-based; settings: 1 hour pretreatment before TGFβ1, real time PCR
Procedure: Mouse embryonic fibroblasts (MEFs) were isolated, starved overnight, then pretreated with Ex. 65 or Ex. 93 for 1 hour prior to addition of TGFβ1. RNA was isolated from cells and real time PCR was performed for CTGF.

[6] = 30 mg/kg IP twice-daily two weeks
[7] = male, C57BL/6, mouse, vena cava serum, mesylate salt, serum
[8] = male, C57BL/6, mouse, portal vein serum, po 10 mg/kg in 0.5% CMC suspension, mesylate salt, serum

T1 sequence (Q13464 whole entry, the tested form may be a part): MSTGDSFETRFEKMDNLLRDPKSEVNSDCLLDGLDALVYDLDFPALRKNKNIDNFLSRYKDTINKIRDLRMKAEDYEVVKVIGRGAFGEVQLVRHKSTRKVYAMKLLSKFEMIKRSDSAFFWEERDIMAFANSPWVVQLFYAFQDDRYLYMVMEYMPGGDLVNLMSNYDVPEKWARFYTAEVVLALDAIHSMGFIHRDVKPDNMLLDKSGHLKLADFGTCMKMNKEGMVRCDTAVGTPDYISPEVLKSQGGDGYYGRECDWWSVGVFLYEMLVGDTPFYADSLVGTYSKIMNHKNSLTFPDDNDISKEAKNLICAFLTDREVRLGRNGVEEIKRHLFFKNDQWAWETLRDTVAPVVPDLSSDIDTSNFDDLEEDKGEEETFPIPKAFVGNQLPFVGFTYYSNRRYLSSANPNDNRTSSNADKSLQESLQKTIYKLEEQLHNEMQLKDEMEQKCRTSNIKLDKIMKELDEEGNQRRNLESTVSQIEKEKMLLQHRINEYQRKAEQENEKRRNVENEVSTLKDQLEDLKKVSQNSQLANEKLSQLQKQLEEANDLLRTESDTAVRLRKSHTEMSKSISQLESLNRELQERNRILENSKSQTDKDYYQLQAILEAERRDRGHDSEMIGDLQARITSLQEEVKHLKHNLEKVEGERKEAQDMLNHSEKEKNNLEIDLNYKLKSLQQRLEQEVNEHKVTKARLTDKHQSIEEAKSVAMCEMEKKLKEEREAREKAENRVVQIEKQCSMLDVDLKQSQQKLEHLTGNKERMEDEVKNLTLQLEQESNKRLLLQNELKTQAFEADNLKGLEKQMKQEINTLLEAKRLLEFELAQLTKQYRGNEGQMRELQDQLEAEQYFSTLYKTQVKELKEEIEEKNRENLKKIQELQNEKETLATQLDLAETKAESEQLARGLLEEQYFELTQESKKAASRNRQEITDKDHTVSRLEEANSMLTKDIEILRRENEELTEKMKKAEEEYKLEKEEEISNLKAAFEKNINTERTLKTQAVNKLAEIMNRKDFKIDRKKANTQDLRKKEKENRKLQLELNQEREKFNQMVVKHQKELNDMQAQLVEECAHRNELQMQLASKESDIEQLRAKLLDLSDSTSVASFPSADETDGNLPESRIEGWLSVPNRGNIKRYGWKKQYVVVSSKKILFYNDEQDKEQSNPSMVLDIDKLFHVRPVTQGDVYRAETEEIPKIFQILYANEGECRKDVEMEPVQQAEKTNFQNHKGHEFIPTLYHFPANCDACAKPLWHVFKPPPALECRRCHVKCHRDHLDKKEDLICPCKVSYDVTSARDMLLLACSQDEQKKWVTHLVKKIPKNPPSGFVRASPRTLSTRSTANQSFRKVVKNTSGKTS

## O[C@H]1CC[C@@H](Nc2nccc(-c3nccc(C#Cc4ccc5[nH]ncc5c4)n3)n2)CC1 [Ex. 65, (1s,4s)-4-((4-((1H-Indazol-5-yl)ethynyl)-[2,4′-bipyrimidin]-2′-yl)amino)cyclohexanol]
ROCK1
  Kd: 0.1 to 0.99 µM
[1]; [6]
  hepatic levels of oncomiR-181a: reduced
  hepatic levels of oncomiR-425: reduced
[1]; hepatic homogenates, mean control 3.22, disease 1.53
  Mean (disease + Ex. 65) mmu-miR-5123: 3.54
[1]; hepatic homogenates, mean control 4.08, disease 1.53
  Mean (disease + Ex. 65) mmu-miR-871-3p: 7.98
[1]; hepatic homogenates, mean control 4.31, disease 8.54
  Mean (disease + Ex. 65) mmu-miR-7115-5p: 2.41
[1]; hepatic homogenates, mean control 9.04, disease 13.85
  Mean (disease + Ex. 65) mmu-let-7k: 7.72
[1]; hepatic homogenates, mean control 39.45, disease 76.50
  Mean (disease + Ex. 65) mmu-miR-93-3p: 46.52
[1]; hepatic homogenates, mean control 66.04, disease 74.42
  Mean (disease + Ex. 65) mmu-miR-542-5p: 39.03
[1]; hepatic homogenates, mean control 71.79, disease 98.65
  Mean (disease + Ex. 65) mmu-miR-27a-5p: 53.13
[1]; hepatic homogenates, mean control 115.29, disease 149.51
  Mean (disease + Ex. 65) mmu-miR-106a-5p: 114.11
[1]; hepatic homogenates, mean control 245.12, disease 297.02
  Mean (disease + Ex. 65) mmu-miR-125a-3p: 182.06
[1]; hepatic homogenates, mean control 364.92, disease 489.94
  Mean (disease + Ex. 65) mmu-miR-501-3p: 296.78
[1]; hepatic homogenates, mean control 427.46, disease 502.07
  Mean (disease + Ex. 65) mmu-miR-339-3p: 426.25
[1]; hepatic homogenates, mean control 1094.11, disease 614.54
  Mean (disease + Ex. 65) mmu-miR-802-5p: 899.47
[1]; hepatic homogenates, mean control 1115.59, disease 1416.47
  Mean (disease + Ex. 65) mmu-miR-322-3p: 949.59
[1]; hepatic homogenates, mean control 1200.81, disease 1454.34
  Mean (disease + Ex. 65) mmu-miR-17-3p: 1161.55
[1]; hepatic homogenates, mean control 1248.83, disease 1603.84
  Mean (disease + Ex. 65) mmu-miR-351-5p: 889.81
[1]; hepatic homogenates, mean control 1421.33, disease 1933.41
  Mean (disease + Ex. 65) mmu-miR-99b-5p: 1099.61
[1]; hepatic homogenates, mean control 1716.15, disease 2037.69
  Mean (disease + Ex. 65) mmu-miR-425-5p: 1524.04
[1]; hepatic homogenates, mean control 3789.12, disease 5124.26
  Mean (disease + Ex. 65) mmu-miR-181a-5p: 2941.29
[1]; hepatic homogenates, mean control 4080.44, disease 5204.90
  Mean (disease + Ex. 65) mmu-miR-320-3p: 3896.99
[1]; hepatic homogenates, mean control 36188.01, disease 41626.66
  Mean (disease + Ex. 65) mmu-miR-93-5p: 31184.61
[1]; hepatic homogenates, mean control 67983.70, disease 80209.00
  Mean (disease + Ex. 65) mmu-miR-143-3p: 58204.03
[1]; hepatic homogenates, mean control 118228.91, disease 141957.68
  Mean (disease + Ex. 65) mmu-miR-191-5p: 119365.71
[1]; of 65 differentially expressed miRNAs, 30 mg/kg IP twice-daily two weeks
  number of differentially expressed miRNAs of NASH livers corrected by treatment: 22
Hepatic stellate cells
  TGFβ1-induced gel contraction in hepatic stellate cells: significantly attenuated
ROCK2; KINOMEscan KdELECT, 11-point 3-fold dilution, read-out: Kd (μM) ROCK2
  Kd: < 0.01 µM
ROCK2; selectivity for ROCK2 over ROCK1 from Kd
  ROCK2 Selectivity: **** (>500-fold selectivity for ROCK2)
[2]; [7]
  AUC: 145 ng·h/mL
  Cmax: 258 nM
[2]
  Cmax as multiple of Kd, in vena cava: 318*Kd
[2]; mesylate salt
  F % in vena cava: 4.6%
[3]; [8]
  AUC: 697 ng·h/mL
  Cmax: 1540 nM
[3]; mice, po, portal vein versus vena cava
  oral bioavailability and liver entry: preferential liver entry
[3]; po 10 mg/kg in 0.5% CMC suspension
  Cmax as multiple of Kd, in portal vein: 1904*Kd
[3]; po 10 mg/kg in 0.5% CMC suspension, mesylate salt
  F % in portal vein: 22%
[4]
  hepatic lipid accumulation (liver steatosis): reduced
  NAFLD activity score (NAS): reduced
[4]; listed as compound 65
  hepatic lipid accumulation (liver steatosis): reduction
  NAFLD activity score (NAS): reduction
[5]
  CTGF production in embryonic fibroblasts: attenuated
